Test results published in PubChem BioAssay AID248 (DTP/NCI, 2004).
Toxic doses and inconclusive results are not listed. No stated cut-off is given here; in the data, active means T/C of 150% or more; inactive means T/C below 125%.

Test system: L1210 leukemia ip in BDF1 mice, survival T/C
Assay: NCI In Vivo Anticancer Drug Screen. Data for tumor model L1210 Leukemia (intraperitoneal) in B6D2F1 (BDF1) mice
Settings: endpoint: mean survival time, higher = longer survival
Summary of the method: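 Transplanted-tumor mice were given test agent; controls received vehicle only. Survival readings from the two groups were divided (treated over control).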

[1] = dose: 25.0 mg/kg/injection, schedule: Q01DX009 (ip), vehicle: Klucel (hydroxypropylcellulose) (HPC)
[2] = dose: 50.0 mg/kg/injection, schedule: Q01DX009 (ip), vehicle: Klucel (hydroxypropylcellulose) (HPC)
[3] = dose: 100.0 mg/kg/injection, schedule: Q01DX009 (ip), vehicle: Klucel (hydroxypropylcellulose) (HPC)
[4] = dose: 50.0 mg/kg/injection, schedule: Q01DX001 (ip), vehicle: carboxymethylcellulose (CMC)
[5] = dose: 400.0 mg/kg/injection, schedule: Q01DX001 (ip), vehicle: carboxymethylcellulose (CMC)
[6] = dose: 100.0 mg/kg/injection, schedule: Q04DX003 (ip), vehicle: saline with Tween-80
[7] = dose: 200.0 mg/kg/injection, schedule: Q04DX003 (ip), vehicle: saline with Tween-80
[8] = dose: 400.0 mg/kg/injection, schedule: Q04DX003 (ip), vehicle: saline with Tween-80
[9] = dose: 50.0 mg/kg/injection, schedule: Q01DX001 (ip), vehicle: saline
[10] = dose: 100.0 mg/kg/injection, schedule: Q01DX001 (ip), vehicle: carboxymethylcellulose (CMC)
[11] = dose: 100.0 mg/kg/injection, schedule: Q01DX001 (ip), vehicle: saline
[12] = dose: 200.0 mg/kg/injection, schedule: Q01DX001 (ip), vehicle: carboxymethylcellulose (CMC)
[13] = dose: 200.0 mg/kg/injection, schedule: Q01DX001 (ip), vehicle: saline
[14] = dose: 400.0 mg/kg/injection, schedule: Q01DX001 (ip), vehicle: saline
[15] = dose: 75.0 mg/kg/injection, schedule: Q01DX001 (ip), vehicle: saline
[16] = dose: 100.0 mg/kg/injection, schedule: Q04DX003 (ip), vehicle: saline
[17] = dose: 50.0 mg/kg/injection, schedule: Q01DX009 (ip), vehicle: saline with Tween-80
[18] = dose: 100.0 mg/kg/injection, schedule: Q01DX009 (ip), vehicle: saline with Tween-80
[19] = dose: 200.0 mg/kg/injection, schedule: Q01DX009 (ip), vehicle: saline with Tween-80

Measured: T/C

COC(=O)C(N=Nc1ccc(C)cc1)C(C)=O (stereo not drawn)
inactive: [1] 97 % of control | [2] 94 % of control | [3] 89 % of control

C[P+]1(c2ccccc2)C2C=CC=CC1C=C2 (stereo not drawn)
inactive: dose: 5.0 mg/kg/injection, schedule: Q01DX001 (ip), vehicle: carboxymethylcellulose (CMC) 100 % of control | dose: 10.0 mg/kg/injection, schedule: Q01DX001 (ip), vehicle: carboxymethylcellulose (CMC) 92 % of control | dose: 20.0 mg/kg/injection, schedule: Q01DX001 (ip), vehicle: carboxymethylcellulose (CMC) 97 % of control

CCOc1ccc(NC2=C(OC)C(=O)C(Nc3ccc(OCC)cc3)=C(OC)C2=O)cc1
inactive: [4] 99 % of control | [5] 93 % of control

CCOC(=O)C(C)(C(=O)OCC)c1cc(OC)c(C)cc1Br
inactive: dose: 50.0 mg/kg/injection, schedule: Q04DX003 (ip), vehicle: saline with Tween-80 100 % of control | [6] 103 % of control | [7] 100 % of control | [8] 97 % of control

O=C(CC1C(=O)Nc2ccccc21)CC1C(=O)Nc2ccccc21 (stereo not drawn)
inactive: dose: 100.0 mg/kg/injection, schedule: Q04DX002 (ip), vehicle: Klucel (hydroxypropylcellulose) (HPC) 102 % of control | dose: 200.0 mg/kg/injection, schedule: Q04DX002 (ip), vehicle: Klucel (hydroxypropylcellulose) (HPC) 97 % of control | dose: 400.0 mg/kg/injection, schedule: Q04DX002 (ip), vehicle: Klucel (hydroxypropylcellulose) (HPC) 102 % of control

CC(=O)[O][Ge]([CH2]CC(C)C)([CH2]CC(C)C)[CH2]CC(C)C
inactive: [4] 100 % of control | [9] 100 % of control | [10] 100 % of control | [11] 102 % of control | [12] 100 % of control | [13] 106 % of control | [5] 96 % of control | [14] 118 % of control

O=[N+]([O-])c1ccc(Oc2ccc[n+]([O-])c2)c([N+](=O)[O-])c1
inactive: [2] 102 % of control | [3] 102 % of control | [6] 96 % of control

O=S(=O)(Cc1ccccc1)C(Cl)Cl
inactive: [15] 96 % of control | dose: 150.0 mg/kg/injection, schedule: Q01DX001 (ip), vehicle: saline 94 % of control | dose: 300.0 mg/kg/injection, schedule: Q01DX001 (ip), vehicle: saline 96 % of control

CCCCNc1nc(N)nc2c1nnn2C1OC(CO)C(O)C1O (stereo not drawn)
inactive: [11] 107 % of control | [13] 101 % of control | [14] 107 % of control

O=C(c1ccccc1)c1ccc[n+](Cc2c(Cl)cccc2Cl)c1
inactive: [15] 101 % of control

N=C(N)CC(=O)CC(=N)N
inactive: dose: 50.0 mg/kg/injection, schedule: Q01DX009 (ip), vehicle: saline 91 % of control | dose: 100.0 mg/kg/injection, schedule: Q01DX009 (ip), vehicle: saline 91 % of control | dose: 200.0 mg/kg/injection, schedule: Q01DX009 (ip), vehicle: saline 98 % of control

C/C=C/C(=O)Nc1cccc(OC(=O)NC(C)C)c1
inactive: [6] 95 % of control | [7] 93 % of control | [8] 87 % of control

Cc1ccc(S(=O)(=O)OC2C(C)C3CS(=O)(=O)C32)cc1 (stereo not drawn)
inactive: dose: 100.0 mg/kg/injection, schedule: Q04DX002 (ip), vehicle: DMSO 119 % of control | dose: 200.0 mg/kg/injection, schedule: Q04DX002 (ip), vehicle: DMSO 105 % of control | dose: 400.0 mg/kg/injection, schedule: Q04DX002 (ip), vehicle: DMSO 102 % of control

CC(=O)NC1CCC(Cc2ccccc2)CC1 (stereo not drawn)
inactive: dose: 100.0 mg/kg/injection, schedule: Q04DX002 (ip), vehicle: saline with Tween-80 97 % of control | dose: 200.0 mg/kg/injection, schedule: Q04DX002 (ip), vehicle: saline with Tween-80 90 % of control | dose: 400.0 mg/kg/injection, schedule: Q04DX002 (ip), vehicle: saline with Tween-80 116 % of control

FC(F)(F)c1cccc(N2CCN(c3c4c(nc5ccccc35)CCCCC4)CC2)c1
inactive: [11] 93 % of control | [13] 95 % of control | [14] 95 % of control

NC(=S)N1CCCCC1
inactive: [11] 98 % of control | [13] 96 % of control

O=C(C1C2C=CC(C2)C1C(=O)N1CCCCC1)N1CCCCC1 (stereo not drawn)
inactive: dose: 25.0 mg/kg/injection, schedule: Q04DX003 (ip), vehicle: saline 103 % of control | dose: 50.0 mg/kg/injection, schedule: Q04DX003 (ip), vehicle: saline 95 % of control | [6] 111 % of control | [16] 98 % of control | [7] 86 % of control

COc1cc2c(cc1OC)-c1cc3cc(OC)c(OC)cc3c(C)[n+]1CC2
inactive: dose: 12.5 mg/kg/injection, schedule: Q04DX002 (ip), vehicle: Klucel (hydroxypropylcellulose) (HPC) 102 % of control | dose: 25.0 mg/kg/injection, schedule: Q04DX002 (ip), vehicle: Klucel (hydroxypropylcellulose) (HPC) 105 % of control | dose: 50.0 mg/kg/injection, schedule: Q04DX002 (ip), vehicle: Klucel (hydroxypropylcellulose) (HPC) 105 % of control

CC1(CO)CCCC2(C)c3cc(O)ccc3CCC12 (stereo not drawn)
inactive: dose: 100.0 mg/kg/injection, schedule: Q01DX009 (ip), vehicle: acetone 90 % of control | [16] 97 % of control | dose: 200.0 mg/kg/injection, schedule: Q04DX003 (ip), vehicle: saline 97 % of control | dose: 400.0 mg/kg/injection, schedule: Q04DX003 (ip), vehicle: saline 97 % of control

NNc1ccccc1C(=O)O
inactive: [4] 94 % of control | [10] 94 % of control | [12] 105 % of control | [5] 94 % of control

COc1cc([N+](=O)[O-])ccc1NC(=O)Oc1ccccc1C(N)=O
inactive: dose: 12.5 mg/kg/injection, schedule: Q01DX009 (ip), vehicle: Klucel (hydroxypropylcellulose) (HPC) 102 % of control | [1] 100 % of control | [2] 98 % of control

O=c1[nH]c2c(cnn2-c2ccccc2)c(=O)n1O
inactive: [9] 97 % of control | [11] 100 % of control

C=CCSC(C)CC (stereo not drawn)
inactive: [17] 95 % of control | [18] 101 % of control | [6] 96 % of control | [19] 92 % of control | [7] 96 % of control

Nc1nc(N)nc(C(=O)Cc2ccccc2)n1
inactive: [17] 108 % of control | [18] 101 % of control | [19] 94 % of control

CCC(CO)NC(=O)/C=C/c1cccc(Br)c1 (stereo not drawn)
inactive: dose: 100.0 mg/kg/injection, schedule: Q04DX003 (ip), vehicle: other 102 % of control | dose: 200.0 mg/kg/injection, schedule: Q04DX003 (ip), vehicle: other 103 % of control | dose: 400.0 mg/kg/injection, schedule: Q04DX003 (ip), vehicle: other 96 % of control

COc1ccc2c3c1OC1C(O)=CCC4[C@H](C2)N(C)CC[C@@]314 (stereo partly drawn)
inactive: [11] 95 % of control | [13] 106 % of control

COC(=O)C(OC)(OC)C(OC)OC
inactive: [11] 97 % of control | [13] 103 % of control | [14] 106 % of control

O=C(O)C1=CCCc2ccc3ccccc3c21
inactive: dose: 75.0 mg/kg/injection, schedule: Q04DX003 (ip), vehicle: saline 100 % of control | [3] 96 % of control | dose: 150.0 mg/kg/injection, schedule: Q04DX003 (ip), vehicle: saline 100 % of control | dose: 200.0 mg/kg/injection, schedule: Q01DX009 (ip), vehicle: Klucel (hydroxypropylcellulose) (HPC) 102 % of control | dose: 300.0 mg/kg/injection, schedule: Q04DX003 (ip), vehicle: saline 97 % of control

C#CCCC#C
inactive: [17] 104 % of control | [18] 109 % of control | [6] 103 % of control | [19] 102 % of control | [7] 104 % of control

COc1ccccc1CC(=O)O
inactive: [11] 100 % of control | [6] 101 % of control | [13] 103 % of control | [7] 105 % of control | [14] 108 % of control | [8] 101 % of control
